Source: PubChem BioAssay (NCI)
“And” between values parts separate entries of the source, which are not always exact repeats. Equal values may be shown once.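 96-well plates; 48 h exposure; 5 concentrations. Endpoints by linear interpolation between flanking doses. Not reached: highest tested concentration assigned. Abbreviation: GI50, concentration required for 50% inhibition of growth. TGI is the concentration that stops growth completely.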

Columns and labels:
Assay in all cases: NCI-60 cell line screen, 48 h
HCT-15 colon = system: HCT-15 colon
BT-549 breast = system: BT-549 breast
SN12C renal = system: SN12C renal
HOP-62 NSCLC = system: HOP-62 NSCLC
PC-3 prostate = system: PC-3 prostate
ACHN renal = system: ACHN renal
RPMI-8226 leukemia = system: RPMI-8226 leukemia
RXF 393 renal = system: RXF 393 renal
MCF7 breast = system: MCF7 breast
SR leukemia = system: SR leukemia

Row | SMILES | GI50 (HCT-15 colon) | TGI (HCT-15 colon) | GI50 (BT-549 breast) | TGI (BT-549 breast) | GI50 (SN12C renal) | TGI (SN12C renal) | GI50 (HOP-62 NSCLC) | TGI (HOP-62 NSCLC) | GI50 (PC-3 prostate) | TGI (PC-3 prostate) | GI50 (ACHN renal) | TGI (ACHN renal) | GI50 (RPMI-8226 leukemia) | GI50 (RXF 393 renal) | TGI (RXF 393 renal) | GI50 (MCF7 breast) | TGI (MCF7 breast) | GI50 (SR leukemia) | TGI (SR leukemia) | TGI (RPMI-8226 leukemia)
1 | CCOC(=O)n1cc(C2=C(c3cn(C)c4ccccc34)COC2=O)c2ccccc21 | 0.0382 µM | > 63 µM | 0.145 µM | 11.1 µM | 0.306 µM | > 100 µM | 0.159 µM | 20.4 µM | 0.162 µM | > 100 µM | 0.0795 µM | > 100 µM | 0.143 µM | 0.0356 µM | 0.377 µM | 0.032 µM | > 100 µM | 0.0449 µM | 16.4 µM | –
2 | O=C1c2nsnc2C(=O)c2c(F)c(F)c(F)c(F)c21 | 0.495 µM | 2 µM | 1.49 µM | 2.83 µM | 0.998 µM | 2.28 µM | 0.913 µM | 2.24 µM | 1.51 µM | 3.1 µM | 0.501 µM | 1.2 µM | 0.374 µM | 0.339 µM | 1.09 µM | 0.398 µM | 2.19 µM | 0.0528 µM | – | 1.63 µM
3 | CC1=CC(=C(c2ccc(N)cc2)c2ccc(N)cc2)C=CC1=N | 4.61 µM and 14.5 µM | 45.1 µM and > 74.7 µM and > 100 µM | 0.679 µM and 1.63 µM | 5.47 µM and 7.09 µM and 9.14 µM | 0.422 µM and 0.456 µM | 13.5 µM and 10 µM and 69.3 µM | 0.486 µM | 1.98 µM and 7.16 µM | 0.553 µM and 2.58 µM | 10.6 µM and 18.2 µM and 10.1 µM | 3.9 µM and 5.01 µM | 18.1 µM and 44.9 µM and 24.3 µM | – | 3.17 µM and 5.67 µM | 12.2 µM and 34.5 µM and 22.9 µM | 0.803 µM and 2.32 µM | 11.4 µM and > 66.8 µM and 21.1 µM | – | > 58.8 µM | –
4 | CN(C)c1ccc(N=C2C=CC(=[N+](C)C)C=C2)cc1 | 23.5 µM | > 100 µM | 4.15 µM | 58.4 µM | 13.7 µM | > 100 µM | 4.21 µM | > 100 µM | 4.89 µM | 22.7 µM | 12.2 µM | 37.5 µM | 3.2 µM | 23.4 µM | > 100 µM | 4.03 µM | 17.6 µM | – | – | 11.4 µM
5 | N#Cc1ccccc1NC(=O)C(=O)c1c(O)c2ccccc2oc1=O | – | > 100 µM | – | > 100 µM | – | > 100 µM | – | > 100 µM | – | > 100 µM | – | > 100 µM | – | – | > 100 µM | – | > 100 µM | – | – | > 100 µM
6 | COc1ccc(C(=O)c2cc(OC)c(OC)c(OC)c2)cc1/C=C/C(=O)c1ccc(OC)c(OC)c1 | 0.428 µM | > 100 µM | – | – | 1.65 µM | > 100 µM | 34.1 µM | > 100 µM | 5.9 µM | > 100 µM | 1.32 µM | > 100 µM | 0.587 µM | > 100 µM | > 100 µM | 0.418 µM | > 100 µM | 0.29 µM | 10.2 µM | 11.8 µM
7 | O=C1Nc2c(C(F)(F)F)cccc2[C@@]1(c1ccc(O)cc1)c1ccc(OC(F)(F)F)cc1 | – | – | < 0.01 µM | < 0.0132 µM | < 0.01 µM | < 0.011 µM | 0.0226 µM | 0.0661 µM | < 0.0141 µM | 0.388 µM | 0.0178 µM | 0.0349 µM | 8.99 µM | < 0.0107 µM | < 0.0232 µM | < 0.01 µM | 0.0269 µM | 10.5 µM | 29.5 µM | 50.8 µM
8 | CC1(C)C(O)C[C@@H](O)[C@@]2(C)C1CC[C@]1(C)C2C[C@@H](O)[C@@H]2C([C@@]3(C)CC[C@@H](C(C)(C)O)O3)CCC21C (stereo not given in full) | – | 25.1 µM | – | – | – | 26.9 µM | – | 30.3 µM | – | – | – | 35.8 µM | – | – | 27.1 µM | – | – | – | > 100 µM | 66.5 µM
9 | C=C(C)[C@@H]1CC[C@]2(C(=O)O)CC[C@]3(C)[C@H](CC[C@@H]4[C@@]5(C)C[C@@H](CC#Cc6ccc(C(F)(F)F)cc6)[C@H](O)C(C)(C)[C@@H]5CC[C@]43C)[C@@H]12 | 3.95 µM | > 100 µM | 10.9 µM | > 100 µM | – | – | – | – | – | – | 4.04 µM | > 100 µM | 4.01 µM | 2.39 µM | 5.49 µM | 2.89 µM | > 100 µM | 3.23 µM | > 100 µM | > 100 µM
10 | COc1ccc(C2CC(c3cc(C)ccc3O)=NC(N)=N2)cc1 (stereo not given) | – | > 100 µM | – | – | – | > 100 µM | – | > 100 µM | – | – | – | > 100 µM | – | – | > 100 µM | – | – | – | > 100 µM | > 100 µM
11 | CC1COc2c(N3CCN(C)CC3)c(F)cc3c(=O)c(C(=O)O)cn1c23 (stereo not given) | > 100 µM | > 100 µM | > 100 µM | > 100 µM | > 100 µM | > 100 µM | > 100 µM | > 100 µM | > 100 µM | > 100 µM | > 100 µM | > 100 µM | > 100 µM | > 100 µM | > 100 µM | > 100 µM | > 100 µM | – | – | > 100 µM
12 | CNC(=O)OCc1c2ccncc2c(C)c2c1[nH]c1ccccc12 | – | 1.76 µM | – | 1.63 µM | – | 1.94 µM | – | 5 µM | – | 20.7 µM | – | 0.522 µM | – | – | 0.17 µM | – | 1.24 µM | – | – | –
13 | Nc1nc2c(s1)CCc1c-2c(Br)n(Cc2ccccc2)c1Br | 3.98 µM | 15.9 µM | 15.1 µM | 30.2 µM | 13.5 µM | 31.2 µM | 18 µM | 33.6 µM | 12.8 µM | 45.5 µM | 2.22 µM | 5.23 µM | – | 2.23 µM | 6.38 µM | 11.9 µM | 28.6 µM | 3.41 µM | > 100 µM | –
14 | Oc1ccc(O)c(-c2cn3ccsc3n2)c1 | 12.3 µM | 24.7 µM | 5.61 µM | 21 µM | 12.2 µM | 26.9 µM | – | – | 10.1 µM | 21.7 µM | 12.7 µM | 25.3 µM | 1.73 µM | 14.5 µM | 29.6 µM | 5.5 µM | 27.2 µM | 1.48 µM | 4.43 µM | 7.82 µM
15 | Cc1ccc(S(=O)(=O)N2CCSCCN(S(=O)(=O)c3ccc(C)cc3)CCN(S(=O)(=O)c3ccc(C)cc3)CC2)cc1 | – | – | – | 70.5 µM | – | > 100 µM | – | 69 µM | – | – | – | – | – | – | > 100 µM | – | > 100 µM | – | – | > 100 µM
16 | N/N=C(\C(=O)Nc1ccc(Cl)cc1Cl)C(c1cnc2ccccc2n1)[N+](=O)[O-] (stereo not given) | – | > 100 µM | – | > 100 µM | – | > 100 µM | – | > 100 µM | – | > 100 µM | – | > 100 µM | – | – | > 100 µM | – | > 100 µM | – | – | > 100 µM
17 | CC1CC(=O)Nc2ccccc2N1C(=O)CN1CCC(CCCCN(C)C)CC1 (stereo not given) | – | > 100 µM | – | – | – | > 100 µM | – | > 100 µM | – | – | – | > 100 µM | – | – | > 100 µM | – | – | – | > 100 µM | > 100 µM
